Reference: ChEMBL document CHEMBL5512671, “Structure-Based Optimization of Novel Sterol 24-C-Methyltransferase Inhibitors for the Treatment of Candida albicans Infections” (J Med Chem, 2024)
In brackets after ≈: the same amount, converted by molar mass.

What was measured:
Candida albicans [1] = experiment: Antifungal activity against Candida albicans SC5314 assessed as inhibition of hyphae growth incubated for 24 hrs by CLSI protocol based broth microdilution method; format: functional
Candida albicans [2] = experiment: Antifungal activity against Candida albicans SC5314 assessed as inhibition of fungal growth incubated for 24 hrs by CLSI protocol based broth microdilution method; format: functional
[3] = Cytotoxicity against human BEAS-2B cells incubated for 48 hrs by CCK-8 method; format: toxicity, cell-based
[4] = Hemolytic activity in mouse RBC assessed as hemolysis at 2 to 32 ug/ml incubated for 60 mins by absorbance based analysis relative to control; format: toxicity, cell-based, Erythrocyte; settings: mouse red blood cells, at 2 to 32 µg/mL, dose 2-32 µg/ml, read-out: Activity
[5] = Cytotoxicity against human HUVEC cells incubated for 48 hrs by CCK-8 method; format: toxicity, cell-based

MIC50 (Candida albicans [1]) [µg/mL]	MIC80 (Candida albicans [2]) [µg/mL]	SMILES	EC50 at 48 h [3] [µg/mL]	hemolysis at 1 h [4] [%]	EC50 at 48 h [5] [µg/mL]
> 128	> 128	Cc1c(-n2c(-c3ccncc3)cs/c2=N\c2ccc(Br)cc2)c(=O)n(-c2ccccc2)n1C			
> 128	> 128	Cc1c(-n2c(-c3ccc(O)cc3)cs/c2=N\c2ccc(Br)cc2)c(=O)n(-c2ccccc2)n1C			
> 128	> 128	Cc1c(-n2c(-c3ccc(I)cc3)cs/c2=N\c2ccccc2)c(=O)n(-c2ccccc2)n1C			
> 128	> 128	Cc1c(-n2c(-c3ccc4ccc5cccc6ccc3c4c56)cs/c2=N\c2ccccc2)c(=O)n(-c2ccccc2)n1C			
> 128	> 128	Cc1c(-n2c(-c3ccc(O)c(C=O)c3)cs/c2=N\c2ccc(Br)cc2)c(=O)n(-c2ccccc2)n1C			
> 128	> 128	Cc1c(-n2c(-c3ccccc3)cs/c2=N\c2ccccc2)c(=O)n(-c2ccccc2)n1C			
8 (≈ 13.7 µM)	> 128	Cc1c(-n2c(-c3ccc(Br)cc3)cs/c2=N\c2ccc(C(F)(F)F)cc2)c(=O)n(-c2ccccc2)n1C			
> 128	> 128	COc1cccc(-c2cs/c(=N\c3ccccc3)n2-c2c(C)n(C)n(-c3ccccc3)c2=O)c1			
2 (≈ 4.15 µM)	> 128	Cc1c(-n2c(-c3ccc(N(C)C)cc3)cs/c2=N\c2ccccc2)c(=O)n(-c2ccccc2)n1C	> 50	< 1	> 50
> 128	> 128	C=CC(=O)Nc1cccc(-c2cs/c(=N\c3ccccc3)n2-c2c(C)n(C)n(-c3ccccc3)c2=O)c1			
> 128	> 128	Cc1c(-n2c(C34CC5CC(CC(C5)C3)C4)cs/c2=N\c2ccccc2)c(=O)n(-c2ccccc2)n1C			
0.5 (≈ 0.928 µM)	> 128	Cc1c(-n2c(-c3ccc4ccccc4c3)cs/c2=N\c2ccc3ccccc3c2)c(=O)n(-c2ccccc2)n1C	> 50	< 1	> 50
> 128	> 128	Cc1c(-n2c(-c3ccccn3)cs/c2=N\c2ccccc2)c(=O)n(-c2ccccc2)n1C			
> 128	> 128	Cc1c(-n2c(-c3cccnc3)cs/c2=N\c2ccccc2)c(=O)n(-c2ccccc2)n1C			
> 128	> 128	Cc1c(-n2c(C3CC3)cs/c2=N\c2ccccc2)c(=O)n(-c2ccccc2)n1C			
32 (≈ 65.4 µM)	> 128	Cc1c(-n2c(-c3ccc4ccccc4c3)cs/c2=N\c2cccnc2)c(=O)n(-c2ccccc2)n1C			
2 (≈ 3.52 µM)	> 128	Cc1c(-n2c(-c3ccc4ccccc4c3)cs/c2=N\c2ccc(Br)cc2)c(=O)n(-c2ccccc2)n1C	> 50	< 1	> 50
> 128	> 128	Cc1c(-n2c(-c3cccc([N+](=O)[O-])c3)cs/c2=N\c2ccc(Br)cc2)c(=O)n(-c2ccccc2)n1C			
> 128	> 128	Cc1c(-n2c(-c3ccc(Cl)cc3Cl)cs/c2=N\c2ccc(Br)cc2)c(=O)n(-c2ccccc2)n1C			
> 128	> 128	Cc1c(-n2c(-c3nccs3)cs/c2=N\c2ccccc2)c(=O)n(-c2ccccc2)n1C			
0.5 (≈ 0.928 µM)	> 128	Cc1c(-n2c(-c3ccc4ccccc4c3)cs/c2=N\c2cccc3ccccc23)c(=O)n(-c2ccccc2)n1C	> 50	< 1	> 50

MIC50 (Candida albicans [1]) [µg/mL]	MIC80 (Candida albicans [2]) [µg/mL]	SMILES	EC50 at 48 h [3] [µg/mL]	hemolysis at 1 h [4] [%]	EC50 at 48 h [5] [µg/mL]
1 (≈ 1.68 µM)	> 128	Cc1c(-n2c(-c3ccc(Br)cc3)cs/c2=N\c2ccc(Br)cc2)c(=O)n(-c2ccccc2)n1C	> 50	< 1	> 50
> 128	> 128	Cc1c(-n2c(-c3ccc(C#N)cc3)cs/c2=N\c2ccc(Br)cc2)c(=O)n(-c2ccccc2)n1C			
> 128	> 128	Cc1c(-n2c(-c3ccc(O)cc3)cs/c2=N\c2ccccc2)c(=O)n(-c2ccccc2)n1C			
> 128	> 128	COc1ccc2cc(-c3cs/c(=N\c4ccccc4)n3-c3c(C)n(C)n(-c4ccccc4)c3=O)ccc2c1			
> 128	> 128	Cc1c(-n2c(-c3ccncc3)cs/c2=N\c2ccccc2)c(=O)n(-c2ccccc2)n1C			
> 128	> 128	Cc1c(-n2c(-c3ccc(S(C)(=O)=O)cc3)cs/c2=N\c2ccccc2)c(=O)n(-c2ccccc2)n1C			
> 128	> 128	Cc1c(-n2c(-c3ccc(Cl)cc3Cl)cs/c2=N\c2ccccc2)c(=O)n(-c2ccccc2)n1C			
> 128	> 128	Cc1c(-[n+]2c(-c3ccc(Br)cc3)csc2N(C)c2ccccc2)c(=O)n(-c2ccccc2)n1C.[I-]			
8 (≈ 14.5 µM)	> 128	Cc1c(-n2c(-c3ccc(Cl)cc3)cs/c2=N\c2ccc(Br)cc2)c(=O)n(-c2ccccc2)n1C			
> 128	> 128	COc1cc(-c2cs/c(=N\c3ccccc3)n2-c2c(C)n(C)n(-c3ccccc3)c2=O)cc(OC)c1OC			
> 128	> 128	Cc1c(-n2c(-c3cccc(F)c3)cs/c2=N\c2ccccc2)c(=O)n(-c2ccccc2)n1C			
4 (≈ 8.84 µM)	> 128	Cc1ccc(-c2cs/c(=N\c3ccccc3)n2-c2c(C)n(C)n(-c3ccccc3)c2=O)cc1			
4 (≈ 8.46 µM)	> 128	Cc1c(-n2c(-c3ccc(Cl)cc3)cs/c2=N\c2ccccc2)c(=O)n(-c2ccccc2)n1C			
> 128	> 128	Cc1c(-n2c(C3CCN(C(=O)OC(C)(C)C)CC3)cs/c2=N\c2ccccc2)c(=O)n(-c2ccccc2)n1C			
> 128	> 128	Cc1c(-n2c(-c3ccc(C(F)(F)F)cc3)cs/c2=N\c2ccc(Br)cc2)c(=O)n(-c2ccccc2)n1C			
8 (≈ 15.3 µM)	> 128	Cc1c(-n2c(-c3ccc(OC(F)(F)F)cc3)cs/c2=N\c2ccccc2)c(=O)n(-c2ccccc2)n1C			
> 128	> 128	Cc1c(-n2c(-c3ccc(C#N)cc3)cs/c2=N\c2ccccc2)c(=O)n(-c2ccccc2)n1C			
> 128	> 128	Cc1c(-n2c(-c3cccc(N)c3)cs/c2=N\c2ccccc2)c(=O)n(-c2ccccc2)n1C			
16 (≈ 29.2 µM)	> 128	COc1ccc(/N=c2\scc(-c3ccc(Br)cc3)n2-c2c(C)n(C)n(-c3ccccc3)c2=O)cc1			
> 128	> 128	Cc1c(-n2c(-c3ccccc3Cl)cs/c2=N\c2ccccc2)c(=O)n(-c2ccccc2)n1C			
> 128	> 128	Cc1c(-n2c(-c3ccc(O)c(C=O)c3)cs/c2=N\c2ccccc2)c(=O)n(-c2ccccc2)n1C			

MIC50 (Candida albicans [1]) [µg/mL]	MIC80 (Candida albicans [2]) [µg/mL]	SMILES	EC50 at 48 h [3] [µg/mL]	hemolysis at 1 h [4] [%]	EC50 at 48 h [5] [µg/mL]
> 128	> 128	Cc1c(-n2c(-c3cccc([N+](=O)[O-])c3)cs/c2=N\c2ccccc2)c(=O)n(-c2ccccc2)n1C			
4 (≈ 7.9 µM)	> 128	Cc1c(-n2c(-c3ccc(C(F)(F)F)cc3)cs/c2=N\c2ccccc2)c(=O)n(-c2ccccc2)n1C			
> 128	> 128	Cc1c(-n2c(-c3cccc(Cl)c3)cs/c2=N\c2ccccc2)c(=O)n(-c2ccccc2)n1C			
1 (≈ 1.76 µM)	> 128	Cc1c(-n2c(-c3ccc(Br)cc3)cs/c2=N\c2ccc3ccccc3c2)c(=O)n(-c2ccccc2)n1C	> 50	< 1	> 50
4 (≈ 7.71 µM)	> 128	COc1ccc(/N=c2\scc(-c3ccc4ccccc4c3)n2-c2c(C)n(C)n(-c3ccccc3)c2=O)cc1			
> 128	> 128	Cc1c(-n2c(-c3cccs3)cs/c2=N\c2ccccc2)c(=O)n(-c2ccccc2)n1C			
> 128	> 128	Cc1c(-n2c(-c3ccc(F)cc3)cs/c2=N\c2ccccc2)c(=O)n(-c2ccccc2)n1C			
> 128	> 128	C#CCOc1ccc(-c2cs/c(=N\c3ccccc3)n2-c2c(C)n(C)n(-c3ccccc3)c2=O)cc1			
> 128	> 128	Cc1c(-n2c(-c3ccccn3)cs/c2=N\c2ccc(Br)cc2)c(=O)n(-c2ccccc2)n1C			
> 128	> 128	Cc1c(-n2c(-c3ccc(F)cc3)cs/c2=N\c2ccc(Br)cc2)c(=O)n(-c2ccccc2)n1C			
2 (≈ 3.59 µM)	> 128	Cc1c(-n2c(-c3ccc4ccccc4c3)cs/c2=N\c2ccc(C(F)(F)F)cc2)c(=O)n(-c2ccccc2)n1C	> 50	< 1	> 50
> 128	> 128	Cc1c(-n2c(-c3ccc4ccccc4c3)cs/c2=N\c2cccc(OCc3ccccc3)c2)c(=O)n(-c2ccccc2)n1C			
> 128	> 128	Cc1c(-n2c(-c3ccc(Br)cc3)cs/c2=N\c2cccnc2)c(=O)n(-c2ccccc2)n1C			
2 (≈ 4.18 µM)	> 128	Cc1c(-n2c(-c3cc4ccccc4o3)cs/c2=N\c2ccccc2)c(=O)n(-c2ccccc2)n1C			
> 128	> 128	Cc1c(-n2c(-c3cccnc3)cs/c2=N\c2ccc(Br)cc2)c(=O)n(-c2ccccc2)n1C			
> 128	> 128	Cc1c(-n2c(-c3ccc(-c4ccccc4)cc3)cs/c2=N\c2ccccc2)c(=O)n(-c2ccccc2)n1C			
> 128	> 128	Cc1c(-n2c(-c3cc4ccccc4oc3=O)cs/c2=N\c2ccccc2)c(=O)n(-c2ccccc2)n1C			
> 128	> 128	CC(=O)c1cs/c(=N\c2ccccc2)n1-c1c(C)n(C)n(-c2ccccc2)c1=O			
> 128	> 128	COc1ccc(-c2cs/c(=N\c3ccccc3)n2-c2c(C)n(C)n(-c3ccccc3)c2=O)cc1			
